ChEMBL document CHEMBL5154747, “Discovery of new carbonic anhydrase IX inhibitors as anticancer agents by toning the hydrophobic and hydrophilic rims of the active site to encounter the dual-tail approach” (Eur J Med Chem, 2022)

Experiments:
Malme-3M = experiment: Anticancer activity against human Malme-3M cells assessed as cell growth inhibition incubated for 48 hrs by SRB assay; type: functional
CAKI-1 = experiment: Anticancer activity against human CAKI-1 cells assessed as cell growth inhibition incubated for 48 hrs by SRB assay; type: functional
SK-MEL-2 = experiment: Anticancer activity against human SK-MEL-2 cells assessed as cell growth inhibition incubated for 48 hrs by SRB assay; type: functional
HT-29 = experiment: Anticancer activity against human HT-29 cells assessed as cell growth inhibition incubated for 48 hrs by SRB assay; type: functional
SW-620 = experiment: Anticancer activity against human SW-620 cells assessed as cell growth inhibition incubated for 48 hrs by SRB assay; type: functional
NCI-H522 = experiment: Anticancer activity against human NCI-H522 cells assessed as cell growth inhibition incubated for 48 hrs by SRB assay; type: functional
MDA-MB-231 = experiment: Anticancer activity against human MDA-MB-231 cells assessed as cell growth inhibition incubated for 48 hrs by SRB assay; type: functional
CCRF-CEM = experiment: Anticancer activity against human CCRF-CEM cells assessed as cell growth inhibition incubated for 48 hrs by SRB assay; type: functional
M14 = experiment: Anticancer activity against human M14 cells assessed as cell growth inhibition incubated for 48 hrs by SRB assay; type: functional
UACC-257 = experiment: Anticancer activity against human UACC-257 cells assessed as cell growth inhibition incubated for 48 hrs by SRB assay; type: functional
SK-MEL-28 = experiment: Anticancer activity against human SK-MEL-28 cells assessed as cell growth inhibition incubated for 48 hrs by SRB assay; type: functional
NCI-H226 = experiment: Anticancer activity against human NCI-H226 cells assessed as cell growth inhibition incubated for 48 hrs by SRB assay; type: functional
HOP-62 = experiment: Anticancer activity against human HOP-62 cells assessed as cell growth inhibition incubated for 48 hrs by SRB assay; type: functional
SNB-19 = experiment: Anticancer activity against human SNB-19 cells assessed as cell growth inhibition incubated for 48 hrs by SRB assay; type: functional
ACHN = experiment: Anticancer activity against human ACHN cells assessed as cell growth inhibition incubated for 48 hrs by SRB assay; type: functional
U-251 = experiment: Anticancer activity against human U-251 cells assessed as cell growth inhibition incubated for 48 hrs by SRB assay; type: functional
NCI-H460 = experiment: Anticancer activity against human NCI-H460 cells assessed as cell growth inhibition incubated for 48 hrs by SRB assay; type: functional
SF-539 = experiment: Anticancer activity against human SF-539 cells assessed as cell growth inhibition incubated for 48 hrs by SRB assay; type: functional
OVCAR-8 = experiment: Anticancer activity against human OVCAR-8 cells assessed as cell growth inhibition incubated for 48 hrs by SRB assay; type: functional
OVCAR-5 = experiment: Anticancer activity against human OVCAR-5 cells assessed as cell growth inhibition incubated for 48 hrs by SRB assay; type: functional
BT-549 = experiment: Anticancer activity against human BT-549 cells assessed as cell growth inhibition incubated for 48 hrs by SRB assay; type: functional
SF-295 = experiment: Anticancer activity against human SF-295 cells assessed as cell growth inhibition incubated for 48 hrs by SRB assay; type: functional
MCF7 = experiment: Anticancer activity against human MCF7 cells assessed as cell growth inhibition incubated for 48 hrs by SRB assay; type: functional
PC-3 = experiment: Anticancer activity against human PC-3 cells assessed as cell growth inhibition incubated for 48 hrs by SRB assay; type: functional
HL-60(TB) = experiment: Anticancer activity against human HL-60(TB) cells assessed as cell growth inhibition incubated for 48 hrs by SRB assay; type: functional
T47D = experiment: Anticancer activity against human T47D cells assessed as cell growth inhibition incubated for 48 hrs by SRB assay; type: functional
SNB-75 = experiment: Anticancer activity against human SNB-75 cells assessed as cell growth inhibition incubated for 48 hrs by SRB assay; type: functional
RXF 393 [1] = experiment: Cytotoxicity against human RXF 393 cells assessed as inhibition of cell viability incubated for 72 hrs under hypoxia condition by MTT assay; type: functional, cell-based; conditions: RXF 393, 72 h
SF-268 = experiment: Anticancer activity against human SF-268 cells assessed as cell growth inhibition incubated for 48 hrs by SRB assay; type: functional
786-0 = experiment: Anticancer activity against human 786-0 cells assessed as cell growth inhibition incubated for 48 hrs by SRB assay; type: functional
IGROV-1 = experiment: Anticancer activity against human IGROV-1 cells assessed as cell growth inhibition incubated for 48 hrs by SRB assay; type: functional
MDA-MB-435 = experiment: Anticancer activity against human MDA-MB-435 cells assessed as cell growth inhibition incubated for 48 hrs by SRB assay; type: functional
A498 = experiment: Anticancer activity against human A498 cells assessed as cell growth inhibition incubated for 48 hrs by SRB assay; type: functional
MDA-MB-468 = experiment: Anticancer activity against human MDA-MB-468 cells assessed as cell growth inhibition incubated for 48 hrs by SRB assay; type: functional
TK-10 = experiment: Anticancer activity against human TK-10 cells assessed as cell growth inhibition incubated for 48 hrs by SRB assay; type: functional
RXF 393 [2] = experiment: Anticancer activity against human RXF 393 cells assessed as cell growth inhibition incubated for 48 hrs by SRB assay; type: functional
COLO 205 = experiment: Anticancer activity against human COLO 205 cells assessed as cell growth inhibition incubated for 48 hrs by SRB assay; type: functional
SR = experiment: Anticancer activity against human SR cells assessed as cell growth inhibition incubated for 48 hrs by SRB assay; type: functional
DU-145 = experiment: Anticancer activity against human DU-145 cells assessed as cell growth inhibition incubated for 48 hrs by SRB assay; type: functional
OVCAR-3 = experiment: Anticancer activity against human OVCAR-3 cells assessed as cell growth inhibition incubated for 48 hrs by SRB assay; type: functional
[3] = read-out: LC50 (the source's name)

For NS(=O)(=O)c1ccc(Nc2nc(N/N=C/c3ccccn3)nc(Nc3ccccc3)n2)cc1, the GI50 (Malme-3M) was 1000 nM, the CC50 (Malme-3M; [3]) was 6280 nM and the GI50 (CAKI-1) was 610 nM. It also gave a CC50 (CAKI-1; [3]) of over 100000 nM, a GI50 (SK-MEL-2) of 1500 nM and a GI50 (HT-29) of 2150 nM. The CC50 (HT-29; [3]) was over 100000 nM, the GI50 (SW-620) was 710 nM and the CC50 (SW-620; [3]) was over 100000 nM. It also gave a GI50 (NCI-H522) of 450 nM, a CC50 (NCI-H522; [3]) of over 100000 nM and a GI50 (MDA-MB-231) of 500 nM. The LC50 (concentration killing 50% of cells) (MDA-MB-231) was over 100000 nM, the GI50 (CCRF-CEM) was 310 nM and the CC50 (CCRF-CEM; [3]) was over 100000 nM. For the same compound, the GI50 (M14) was 850 nM, the GI50 (UACC-257) was 2140 nM and the LC50 (UACC-257) was over 100000 nM. It also gave a GI50 (SK-MEL-28) of 750 nM, a CC50 (SK-MEL-28; [3]) of 6190 nM and a GI50 (NCI-H226) of 1070 nM. The CC50 (NCI-H226; [3]) was over 100000 nM, the GI50 (HOP-62) was 550 nM and the CC50 (HOP-62; [3]) was over 100000 nM. For the same compound, the GI50 (SNB-19) was 850 nM, the CC50 (SNB-19; [3]) was over 100000 nM and the GI50 (ACHN) was 1120 nM. The GI50 (U-251) was 510 nM, the CC50 (U-251; [3]) was over 100000 nM and the GI50 (NCI-H460) was 2410 nM. For the same compound, the CC50 (NCI-H460; [3]) was over 100000 nM, the GI50 (SF-539) was 680 nM and the CC50 (SF-539; [3]) was 8000 nM. The GI50 (OVCAR-8) was 440 nM, the LC50 (OVCAR-8) was over 100000 nM and the GI50 (OVCAR-5) was 1600 nM. For the same compound, the CC50 (OVCAR-5; [3]) was over 100000 nM, the GI50 (BT-549) was 890 nM and the CC50 (BT-549; [3]) was over 100000 nM. It also gave a GI50 (SF-295) of 1400 nM, a CC50 (SF-295; [3]) of over 100000 nM and a GI50 (MCF7) of 1100 nM. For the same compound, the LC50 (MCF7) was 6800 nM, the GI50 (PC-3) was 690 nM and the CC50 (PC-3; [3]) was over 100000 nM. The GI50 (HL-60(TB)) was 630 nM, the CC50 (HL-60(TB); [3]) was over 100000 nM and the GI50 (T47D) was 470 nM. It also gave an LC50 (T47D) of over 100000 nM, a GI50 (SNB-75) of 1320 nM and an LC50 (concentration killing 50% of cells) (SNB-75) of 5710 nM. It also gave an IC50 (RXF 393 [1]) of 3110 nM, a GI50 (SF-268) of 460 nM and an LC50 (concentration killing 50% of cells) (SF-268) of over 100000 nM. It also gave a GI50 (786-0) of 1060 nM, a CC50 (786-0; [3]) of over 100000 nM and a GI50 (IGROV-1) of 790 nM. It also gave a CC50 (IGROV-1; [3]) of over 100000 nM, a GI50 (MDA-MB-435) of 910 nM and an LC50 (MDA-MB-435) of 5930 nM. It also gave a GI50 (A498) of 1610 nM, a CC50 (A498; [3]) of 6890 nM and a GI50 (MDA-MB-468) of 310 nM. The CC50 (MDA-MB-468; [3]) was over 100000 nM, the GI50 (TK-10) was 1190 nM and the CC50 (TK-10; [3]) was over 100000 nM. The GI50 (RXF 393 [2]) was 1070 nM, the CC50 (RXF 393 [2]; [3]) was 6510 nM and the GI50 (COLO 205) was 410 nM. For the same compound, the CC50 (COLO 205; [3]) was over 100000 nM, the GI50 (SR) was 330 nM and the CC50 (SR; [3]) was over 100000 nM. The GI50 (DU-145) was 850 nM, the LC50 (50% lethal concentration) (DU-145) was over 100000 nM and the GI50 (OVCAR-3) was 460 nM. For the same compound, the LC50 (concentration killing 50% of cells) (OVCAR-3) was over 100000 nM.
